Data on four compounds can be found in patent US20130143958A1, “DOSAGE UNIT COMPRISING A PROSTAGLANDIN ANALOG FOR TREATING CONSTIPATION” (priority 2001, published 2013).

The conditions of data set [1]: cited from earlier work; for effect on the intestine: administered in pharmacological doses.
Data set [2] relates to volunteers. Briefly: Phase Ia single rising dose study, safety, tolerance and bowel movement frequency. The data set is classed as in vivo, human. The method, then:
(§1) The safety and tolerance of oral Compound A (13,14-dihydro-15-keto-16,16-difluoro-PGE1) was evaluated in 16 volunteers in a single-dose Phase I study (Phase Ia) at rising per-person doses of 6 μg, 12 μg, 24 μg, 48 μg, 72 μg, and 96 μg compared and in 24 volunteers in a multiple-dose Phase I study (Phase Ib) at rising per-person doses of 24 μg, 30 μg, and 36 μg of Compound A administered three times a day (TID) (i.e., total daily per person doses of 72 μg, 90 μg and 108 μg) for 6 days.
96 μg was the maximum tolerated single oral Compound A dose. […] These occurred in 13 of the 17 volunteers and all resolved. Volunteers receiving placebo experienced five AEs. Most AEs could be categorized as either responses or events commonly reported in Phase I clinical trials (such as headache and lightheadedness) or expected pharmacodynamic responses of Compound A (such as loose bowel movements, diarrhea and abdominal cramping).
Bowel movement frequency was assessed during the 24 hour period after dosing for each dose-level group. Bowel movements were experienced in the placebo and in all active dose groups. […] Compared to only three of twelve subjects experiencing bowel movements in the placebo group, all six subjects in the 96 μg Compound A group experienced bowel movements. Furthermore, the average number of bowel movements per subject in this Compound A group (1.5) was three times greater than the average number of bowel movements per subject in the placebo group (0.5).

The next data set relates to patients. Briefly: Phase II dosage study in constipation, 21 days. Format: in vivo, human. To be noted: for daily average number of spontaneous bowel movements vs placebo: Week 1 and Week 2; for stool consistency: all post-baseline time points. The method, then: All randomized patients who took at least one dose of double-blind study medication constituted the safety evaluable (SE) population. These patients were included in the demographic data, baseline characteristic data and safety analysis. For efficacy, the same data set was used and is referred to as the intent-to-treat (ITT) population. […] Key efficacy analyses were also performed on the per-protocol (PP) population, which excluded all data for the affected weeks for protocol violators. Patients whose treatments were adjusted were analyzed in their original treatment group (i.e., as randomized).
Eligible patients were treated with either placebo or total daily doses of 24 μg, 48 μg or 72 μg of Compound A for 21 days. One placebo or Compound A capsule was taken 3 times each day (AM, Noon, and PM). Compound A was administered as 24 μg oral capsules. Patients assigned to receive the total daily 24 μg Compound A dose took one Compound A capsule in the AM and one matching placebo capsule both at Noon and in the PM; patients assigned to receive the total daily 48 μg Compound A dose took one Compound A capsule in both the AM and PM and one matching placebo capsule at Noon; patients assigned to receive the total daily 72 μg Compound A dose took one Compound A capsule in the AM, at Noon, and in the PM.

Data set [3] concerns volunteers. Put plainly: Phase Ib multiple rising dose study (TID for 6 days), safety, tolerance and bowel movement frequency. The data set is classed as in vivo, human. To be noted: for total bowel movements in group: placebo 31. The method, then: as §1
Compound A was determined to be optimal when administered at the 24 μg dose TID and determined to be safe and tolerable up to 36 μg when administered TID for at least 6 days.
Bowel movement frequency was assessed in this study as well. […] A total of 193 bowel movements were experienced in this study. Of these, 31 occurred in the placebo group, 70 in the 24 μg group, 51 in the 30 μg group and 41 in the 36 μg group.

As for `CCCCC[C@H](O)/C=C/[C@@H]1[C@@H](C/C=C\CCCC(=O)O)[C@@H](O)C[C@H]1O` [PGF2α], the “effect on the intestine” value in data set [1] is “stimulate intestinal transit and to cause diarrhea”.
As to `CCCCC[C@H](O)/C=C/[C@H]1[C@H](O)CC(=O)[C@@H]1C/C=C\CCCC(=O)O` [PGE2], the “effect on the intestine” value in data set [1] is “stimulate intestinal transit and to cause diarrhea”.
Regarding `CCCCC(C)(O)C/C=C/[C@H]1[C@H](O)CC(=O)[C@@H]1CCCCCCC(=O)OC` (mixture of isomers) [misoprostol], in data set [1] (in vivo), the “most commonly reported side effect” value is recorded as “diarrhea”.
In the case of `CCCCC(F)(F)C(=O)CCC1C(O)CC(=O)C1CCCCCCC(=O)O` (centres unmarked) [Compound A, 13,14-dihydro-15-keto-16,16-difluoro-PGE1], in the data set on volunteers [2] (96 μg single dose, 24 hour period after dosing), the “average number of bowel movements per subject relative to placebo group” value is recorded as “three”. In addition, the “average number of bowel movements per subject” value in the data set on volunteers [2] (96 μg single dose, 24 hour period after dosing, placebo 0.5) worked out at 1.5. In addition, the “subjects experiencing bowel movements” value with volunteers [2] (96 μg single dose, 24 hour period after dosing, placebo three of twelve) was “all six”. For the same compound, in the data set with volunteers [2] (24 hour period after dosing), the “bowel movements compared to placebo” value is listed as “trend for increased bowel movements”. Moreover, in the data set with volunteers [2] (in vivo), the “total number of AEs” value worked out at 49 and the “volunteers with AEs” value was 13 of the 17. Moreover, the dose-limiting toxicity result in the data set on volunteers [2] (in vivo, po) is “nausea”. In addition, the “maximum tolerated single per-person dose” value in the data set on volunteers [2] (single oral dose) turned out to be 96 µg. In addition, in the data set on patients (48 μg total daily dose), the “proportion of patients who had a spontaneous bowel movement on Day 1” value is listed as “statistically significant increase”, the “daily average number of spontaneous bowel movements vs placebo” value is given as “statistically significant increases” and the stool consistency result is “Statistically significant improvements”. Further, the constipation severity entry with patients (48 μg total daily dose, Week 3) is on record as “Statistically significant improvements”. Also, in the data set with patients (72 μg total daily dose), the “proportion of patients who had a spontaneous bowel movement on Day 1” value was “statistically significant increase”, the “daily average number of spontaneous bowel movements vs placebo” value is “statistically significant increases” and the stool consistency result was “Statistically significant improvements”. For the same compound, the constipation severity result in the data set on patients (72 μg total daily dose, Weeks 2 and 3) is given as “Statistically significant improvements”. Besides, the minimum effective dose in the data set on patients (based on statistical analyses) came to 48 μg per day. For the same compound, the “overall efficacy, relief of constipation” value with patients (doses as low as 24 μg per day) is “tended to relieve constipation”. Further, the “total bowel movements in group” value in the data set with volunteers [3] (24 μg group TID) is 70. Further, the “total bowel movements in group” value with volunteers [3] (30 μg group TID) came out at 51. For the same compound, the “maximum tolerated multiple dose as total daily dose” value in the data set with volunteers [3] (36 μg TID) was 108 µg. Besides, the “total bowel movements in group” value with volunteers [3] (36 μg group TID) worked out at 41. The “best tolerated effective dose” value with volunteers [3] (TID, healthy volunteers) turned out to be 24 µg. In the data set on volunteers [3] (administered TID), the optimal dose is 24 µg. In addition, in the data set on volunteers [3] (in vivo), the “central nervous system or physical abnormalities” value is given as “no central nervous system or physical abnormalities observed”; the “main dose limiting side effect” value is listed as “nausea”; the “safe and tolerable dose” value is given as “up to 36 μg”; the “vital signs and ECG measurements” value is recorded as “normal”. Further, the “maximum tolerated multiple per-person dose” value with volunteers [3] (oral, taken TID, 6 days) is 36 µg.
